The target in this assay is T1, human HSL (Homo sapiens, UniProt Q05469).
T1 construct: fused on or other part: C-terminal His6 tag
T1 sequence (Q05469 1-1076): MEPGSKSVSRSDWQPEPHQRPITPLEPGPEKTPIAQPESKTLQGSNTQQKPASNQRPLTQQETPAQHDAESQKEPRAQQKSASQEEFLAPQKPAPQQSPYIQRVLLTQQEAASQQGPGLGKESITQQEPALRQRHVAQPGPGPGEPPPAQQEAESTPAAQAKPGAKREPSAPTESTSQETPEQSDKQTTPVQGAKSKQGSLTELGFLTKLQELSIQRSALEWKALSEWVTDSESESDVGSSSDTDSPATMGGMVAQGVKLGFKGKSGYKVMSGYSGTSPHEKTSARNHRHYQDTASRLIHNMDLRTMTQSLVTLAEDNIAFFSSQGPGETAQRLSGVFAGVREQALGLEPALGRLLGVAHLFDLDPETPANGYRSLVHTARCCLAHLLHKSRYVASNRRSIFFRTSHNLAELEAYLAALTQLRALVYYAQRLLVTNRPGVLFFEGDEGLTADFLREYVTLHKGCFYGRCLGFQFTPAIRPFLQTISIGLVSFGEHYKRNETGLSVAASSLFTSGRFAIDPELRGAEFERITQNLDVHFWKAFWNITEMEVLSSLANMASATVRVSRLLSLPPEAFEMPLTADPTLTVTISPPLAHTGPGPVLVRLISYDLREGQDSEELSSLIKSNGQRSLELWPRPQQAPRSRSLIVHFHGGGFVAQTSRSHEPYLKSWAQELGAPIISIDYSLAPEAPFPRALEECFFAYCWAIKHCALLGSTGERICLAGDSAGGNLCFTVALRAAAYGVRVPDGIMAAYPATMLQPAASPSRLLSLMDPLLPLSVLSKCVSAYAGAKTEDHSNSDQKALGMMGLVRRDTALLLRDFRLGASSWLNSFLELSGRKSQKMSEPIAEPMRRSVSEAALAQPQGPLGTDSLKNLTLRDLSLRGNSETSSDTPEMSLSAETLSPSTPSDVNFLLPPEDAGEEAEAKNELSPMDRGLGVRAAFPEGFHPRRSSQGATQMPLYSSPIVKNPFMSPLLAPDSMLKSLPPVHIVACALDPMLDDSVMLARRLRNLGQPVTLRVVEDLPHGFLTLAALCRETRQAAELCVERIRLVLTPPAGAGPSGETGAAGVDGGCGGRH
As to the kind of experiment: Human Hormone-Sensitive Lipase (HSL) enzyme inhibition assay (colorimetric, DMPT substrate). It counts as biochemical. The following applies: human full length HSL-His6, 2,3-dimercapto-1-propanol tributyrate substrate, 37° C. 20 minutes; read-out: HSL hum IC50. The protocol:
Production of Human full length Hormone Sensitive Lipase-His^6:
1) Cloning: cDNA was prepared from commercial human brain polyA+ RNA and used as a template in overlapping PCR to generate a full length human HSL ORF with a 3′-His6 tag. This full length insert was cloned into the pFast-BAC vector and the DNA-sequence of several single clones was verified. DNA from a correct full length clone with the 3′His6 tag was used to transform the E. coli strain DH10BAC. Resulting bacmid DNA was used to generate a titered baculovirus stock for protein generation. The sequence of the encoded HSL conforms to Swissprot entry Q05469, with the additional C-terminal His6-tag.
2) Protein purification: Culture: 5.5 L, High 5 cells expressing human full length HSL-His^6, 48 hr., containing 25 μM E-64. Cell count: […], 90% viable.
Cells were thawed. On ice, cells were suspended in Base Buffer containing 10% glycerol, 25 mM Tris-Cl, 300 mM NaCl, 10 mM imidazole, 10 mM 2-mercaptoethanol, 2 μg pepstatin/ml, 2 μg leupeptin/ml, 2 μg antipain/ml, pH 8.0 at 4° C. in a final volume of 475 ml with 3.75×10^7 cells/ml. […] was done at 3×30 sec., Lubrol PX was added to 0.2% final concentration followed by stirring for 15 min. at 4° C. and centrifugation at 25 k×g, 60 min., 4° C. Soluble proteins were mixed with 60 ml of pre-washed and equilibrated Ni-NTA Agarose (Qiagen 30210) followed by tumbling end-over-end, 45 min., 4° C., centrifugation 1000 rpm 5 min and letting resin settle 5 min. Supernatant was removed, the resin washed in the centrifuge vessel using 5 volumes of Base Buffer containing 0.2% Lubrol PX. Centrifugation was done again, then the supernatant discarded. The resin was poured onto a 0.8 μm membrane in a disposable filter unit (Nalge 450-0080), and washed with 5 volumes of Base Buffer containing 0.2% Lubrol PX. It was then washed with 30 volumes of Base Buffer containing 60 mM imidazole pH 7.5 at 4° C. The protein was eluated with 5 volumes of 25 mM Tris-Cl, 300 mM NaCl, 200 mM imidazole, 10 mM 2-mercaptoethanol, pH 7.5 at 4° C. by tumbling resin with buffer end-over-end, 30 min., 4° C. The resin was captured on a 0.2 μm membrane disposable filter unit (Millipore SCGP U02 RE) and the eluate collected in the reservoir. The eluate was concentrated using a 30 k MWCO centrifugal filter device (Sartorius Vivascience Vivacell 100, VC1022), to 20 ml. It was then dialyzed overnight at 4° C., two times against 2 L of 10% glycerol, 25 mM Tris-Cl, 300 mM NaCl, 0.2 mM EDTA, 0.2 mM DTT, pH 7.5 at 4° C. The protein was filtered using a 0.22 μm disposable filter unit (Millipore SCGP00525). The protein concentration was calculated from absorbance at 280 nm, using 280=0.67 cm-1 mg-1. Yield was 235 mg, total. The protein was stored at −80° C.
Human Hormone-Sensitive Lipase (HSL) enzyme inhibition assay:
HSL enzyme activity was measured by a colorimetric assay using 2,3-dimercapto-1-propanol tributyrate (Aldrich, St. Louis, Mo.) as a substrate. Typically, 1.5 mM 2,3-dimercapto-1-propanol tributyrate (DMPT) in 100 mM MOPS, pH 7.2, 0.2 mg/ml fatty acid-free BSA was prepared by sonication at 4° C. to homogenous suspension. Test compounds (2 mM stock in DMSO) were diluted 3 fold in series in DMSO. Compound solutions were diluted 24 fold in 1.5 mM DMPT containing solution and 18 ul per well was added to 384-well microplates (Corning Costar). Twelve microliters per well of human HSL (15 ug/ml) was added and the reaction mixture was incubated at 37° C. for 20 minutes. Six microliters of 12 mM dithio-bis-(2-nitrobenzoic acid) (DTNB) in DMSO plus 1.2% SDS and 0.6% Triton X-100 were added and the mixture was incubated at room temperature for 15 minutes. Product production was monitored by reading absorbance at 405 nm on an Envision Reader (PerkinElmer Life and Analytical Sciences, Shelton, Conn.).

As to `CN1CCC2(CCN(c3ccc(OC(F)(F)F)cc3)C2=O)CC1=O` (stereo not drawn) [Example 6, 8-Methyl-2-(4-trifluoromethoxy-phenyl)-2,8-diaza-spiro[4.5]decane-1,7-dione], the half-maximal inhibitory concentration (IC50) was found to be 6.02 µM.
Take `CCCN1CCC2(CCN(c3ccc(OC(F)(F)F)cc3)C2=O)CC1=O` (stereo not drawn) [Example 2, 8-Propyl-2-(4-trifluoromethoxy-phenyl)-2,8-diaza-spiro[4.5]decane-1,7-dione]: the IC50 stood at 0.25 µM.
`CC(C)CS(=O)(=O)N1CCC2(CCN(c3ccc(OC(F)(F)F)cc3)C2=O)CC1=O` (stereo not drawn) [Example 4, 8-(2-Methyl-propane-1-sulfonyl)-2-(4-trifluoromethoxy-phenyl)-2,8-diaza-spiro[4.5]decane-1,7-dione]: the IC50 turned out to be 0.16 µM.
To `O=C1CC2(CCN1Cc1ccccc1)CCN(c1ccc(OC(F)(F)F)cc1)C2=O` (stereo not drawn) [Example 1, 8-Benzyl-2-(4-trifluoromethoxy-phenyl)-2,8-diaza-spiro[4.5]decane-1,7-dione] belongs 0.27 µM; to `CC(C)(C)CC(=O)N1CCC2(CCN(c3ccc(OC(F)(F)F)cc3)C2=O)CC1=O` (stereo not drawn) [Example 5, 8-(3,3-Dimethyl-butyryl)-2-(4-trifluoromethoxy-phenyl)-2,8-diaza-spiro[4.5]decane-1,7-dione], 0.11 µM.
With `CC(C)(C)CN1CCC2(CCN(c3ccc(OC(F)(F)F)cc3)C2=O)CC1=O` (stereo not drawn) [Example 9, 8-(2,2-Dimethyl-propyl)-2-(4-trifluoromethoxy-phenyl)-2,8-diaza-spiro[4.5]decane-1,7-dione], the half-maximal inhibitory concentration (IC50) came to 0.08 µM.
The figure for `O=C1CC2(CCN(c3ccc(CC(F)(F)F)cc3)C2=O)CCN1S(=O)(=O)c1ccccc1Cl` (stereo not drawn) [Example 10, 8-(2-chlorophenylsulfonyl)-2-(4-(2,2,2-trifluoroethyl)phenyl)-2,8-diazaspiro[4.5]decane-1,7-dione] is 0.03 µM; for `CCCCN1CCC2(CCN(c3ccc(OC(F)(F)F)cc3)C2=O)CC1=O` (stereo not drawn) [Example 8, 8-Butyl-2-(4-trifluoromethoxy-phenyl)-2,8-diaza-spiro[4.5]decane-1,7-dione] it is 0.1 µM.
To `CC(C)(C)CC(=O)N1CCC2(CCN(c3ccc(CC(F)(F)F)cc3)C2=O)CC1=O` (stereo not drawn) [Example 11, 8-(3,3-dimethylbutanoyl)-2-(4-(2,2,2-trifluoroethyl)phenyl)-2,8-diazaspiro[4.5]decane-1,7-dione] belongs 0.06 µM; to `CC(C)(C)CC(=O)N1CCC2(CCN(c3ccc(OCC(F)(F)F)cc3)C2=O)CC1=O` (stereo not drawn) [Example 12, 8-(3,3-dimethylbutanoyl)-2-(4-(2,2,2-trifluoroethoxy)phenyl)-2,8-diazaspiro[4.5]decane-1,7-dione], 0.14 µM.
Regarding `CCN1CCC2(CCN(c3ccc(OC(F)(F)F)cc3)C2=O)CC1=O` (stereo not drawn) [Example 7, 8-Ethyl-2-(4-trifluoromethoxy-phenyl)-2,8-diaza-spiro[4.5]decane-1,7-dione], the IC50 amounted to 0.81 µM.
The figure for `O=C1CC2(CCN(c3ccc(OC(F)(F)F)cc3)C2=O)CCN1S(=O)(=O)c1ccccc1Cl` (stereo not drawn) [Example 3, 8-(2-Chloro-benzenesulfonyl)-2-(4-trifluoromethoxy-phenyl)-2,8-diaza-spiro[4.5]decane-1,7-dione] is 0.03 µM.

What is called IC50 is the point on the concentration scale where inhibition reaches its midpoint.

The values are drawn from patent US8097634B2, “Azacyclic derivatives” (Hoffmann-La Roche Inc., priority 2010, dated 2012).
